Experimental data published in the supplement of paper PMC10307832.

What was measured:
Experiment in all cases: relative viability (nuclei count vs DMSO), 5 days (fraction); higher = more cells survive
kb NB 142-70 + AZD7762 = compound: C1CSC2=C(C(=O)N1)SC3=C2C=C(C=C3)O [kb NB 142-70] + NC(=O)Nc1cc(-c2cccc(F)c2)sc1C(=O)N[C@H]1CCCNC1 [AZD7762] (partner 0.2 µM)
Method in brief: (§1)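 Each reported value is a median over duplicate plates. It expresses relative viability: treated-well nuclei count divided by vehicle-well nuclei count. Lung cancer cell lines in 1536-well plates were dosed by pin tool a day after seeding, alone with one drug or with a fixed anchor-drug dose plus five library-drug doses (not always all listed) in √10 steps, and nuclei were counted after 5 days.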

[1] = compound: C1CSC2=C(C(=O)N1)SC3=C2C=C(C=C3)O [kb NB 142-70] + CC(=O)Nc1cccc(-n2c(=O)n(C3CC3)c(=O)c3c(Nc4ccc(I)cc4F)n(C)c(=O)c(C)c32)c1 [Trametinib] (partner 0.02 µM)
Method in brief: as §1

[2] = compound: NCC(=O)Nc1ccc(-n2nc(C(F)(F)F)cc2-c2ccc3c(ccc4ccccc43)c2)cc1 + N=C(N)NC(=N)NCCc1ccccc1 [Phenformin] (partner 250 µM)
Method in brief: as §1

[3] = compound: NCC(=O)Nc1ccc(-n2nc(C(F)(F)F)cc2-c2ccc3c(ccc4ccccc43)c2)cc1 + O=C(c1cc(Cc2n[nH]c(=O)c3ccccc23)ccc1F)N1CCN(C(=O)C2CC2)CC1 [Olaparib] (partner 8 µM)
Method in brief: as §1

[4] = compound: C1CSC2=C(C(=O)N1)SC3=C2C=C(C=C3)O [kb NB 142-70] + CCNC(=O)c1noc(-c2cc(C(C)C)c(O)cc2O)c1-c1ccc(CN2CCOCC2)cc1 [Luminespib] (partner 0.01 µM)
Method in brief: as §1

Cell Line | relative viability (kb NB 142-70 + AZD7762; first compound 0.1 µM) | relative viability (kb NB 142-70 + AZD7762; first compound 1 µM) | relative viability (kb NB 142-70 + AZD7762; first compound 3.162 µM) | relative viability ([1]; first compound 0.1 µM) | relative viability ([1]; first compound 1 µM) | relative viability ([1]; first compound 3.162 µM) | relative viability ([2]; first compound 0.02 µM) | relative viability ([2]; first compound 0.06325 µM) | relative viability ([2]; first compound 0.2 µM) | relative viability ([2]; first compound 0.6325 µM) | relative viability ([2]; first compound 2 µM) | relative viability ([3]; first compound 0.02 µM) | relative viability ([3]; first compound 0.06325 µM) | relative viability ([3]; first compound 0.2 µM) | relative viability ([3]; first compound 0.6325 µM) | relative viability ([3]; first compound 2 µM) | relative viability ([4]; first compound 0.1 µM) | relative viability ([4]; first compound 1 µM) | relative viability ([4]; first compound 3.162 µM)
NCI-H2405 | 0.792 | 0.769 | 0.609 | 0.604 | 0.596 | 0.643 | 0.402 | 0.399 | 0.416 | 0.38 | 0.475 | 0.873 | 0.89 | 0.863 | 0.857 | 0.919 | 0.733 | 0.728 | 0.523
NCI-H3122 | 1 | 1.03 | 1.02 | 0.229 | 0.225 | 0.274 | 0.37 | 0.432 | 0.364 | 0.386 | 0.377 | 0.675 | 0.637 | 0.633 | 0.693 | 0.558 | 0.0874 | 0.075 | 0.0881
PC-3 [JPC-3] | 0.832 | 0.807 | 0.773 | 0.685 | 0.726 | 0.643 | 0.497 | 0.486 | 0.439 | 0.485 | 0.492 | 1.19 | 1.2 | 1.22 | 1.08 | 1.18 | 0.709 | 0.817 | 0.627
PC-14 | 0.353 | 0.295 | 0.408 | 0.808 | 0.769 | 0.799 | 0.553 | 0.64 | 0.543 | 0.57 | 0.642 | 0.308 | 0.45 | 0.317 | 0.388 | 0.306 | 0.149 | 0.173 | 0.13
RERF-LC-KJ | 1.02 | 0.985 | 1.04 | 0.914 | 0.928 | 0.805 | 0.41 | 0.458 | 0.412 | 0.409 | 0.403 | 0.98 | 0.97 | 1.01 | 0.985 | 0.897 | 1.33 | 1.27 | 0.936
SW 900 | 0.663 | 0.758 | 0.879 | 0.73 | 1.05 | 0.682 | – | 0.729 | 0.599 | 0.587 | 0.661 | 0.86 | 0.881 | 0.88 | 0.693 | 0.994 | 0.187 | 0.181 | 0.177
